Test results as given in US20250144125A1 (priority 2021, published 2025).
“And” between values parts separate entries of the source, which are not always exact repeats. Equal values may be shown once. Read-outs that look alike come from different tables or passages of the source.

Experiments:
in vitro [1] = settings: human
[2] = test system: measles virus (CC strain); assay: microbe, parasite or virus in culture; format: cell-based
in vitro [3] = settings: dog, CC50 MDCK
[4] = test system: dengue virus 2 (New Guinea C strain); assay: microbe, parasite or virus in culture; format: cell-based
[5] = test system: yellow fever virus (YFV 17D strain); assay: microbe, parasite or virus in culture; format: cell-based
[6] = test system: tacaribe virus (TRVL11573 strain); assay: microbe, parasite or virus in culture; format: cell-based; settings: read-out: Tacaribe virus EC50 TRVL 11573 strain
[7] = test system: human norovirus genogroup I NoV (Norwalk virus replicon) in HG23 cells; assay: Human norovirus antiviral assay, qRT PCR in HG23 NoV replicon cells; format: cell-based; settings: for EC50: HG23 Nov replicon cells, qRT PCR intracellular RNA, read-out: EC50 human norovirus
[8] = test system: chikungunya virus (S27 strain); assay: microbe, parasite or virus in culture; format: cell-based
[9] = test system: influenza A (H1N1) virus (California/07/2009 strain); assay: microbe, parasite or virus in culture; format: cell-based; settings: for EC50: read-out: EC50 California/07/2009 strain
in vitro [10] = settings: African green monkey
[11] = Cytotoxicity in the human norovirus replicon assay (HG23 cells); settings: human, HG23 Nov replicon cells
[12] = test system: enterovirus-71 (Tainan/4643/98 strain); assay: organism not typed; format: cell-based
MERS-CoV (EMC strain) = assay: microbe, parasite or virus in culture; format: cell-based
in vitro [13] = settings: African green monkey, Tacaribe virus CC50 Vero
[14] = test system: tacaribe virus (TRVL11573 strain); format: cell-based
HG23 Nov replicon cells = assay: Cytotoxicity in the human norovirus replicon assay (HG23 cells); settings: read-out: CC50 human norovirus assay
[15] = test system: enterovirus-71 (Tainan/4643/98 strain); assay: Secondary assay (virus yield reduction / neutral red CPE) against enterovirus-71 in Vero 76 cells; format: cell-based
HCV = settings: literature; read-out: EC50 against HCV (RNA replication); cited from earlier work
[16] = Measles morbillivirus, Vero 76, read-out: Measles EC50 CC strain
[17] = read-out: Measles EC50 CC strain
[18] = read-out: Yellow fever virus CC50 Huh7, Neutral Red, YFV screen
[19] = Dengue virus, Huh-7, read-out: EC50 dengue virus 2
[20] = Yellow fever virus, Huh-7, read-out: Yellow fever virus EC50 YFV 17D strain
[21] = read-out: MERS-CoV CC50 Vero 76, Neutral Red, MERS-CoV screen
[22] = Mammarenavirus tacaribeense, Vero
[23] = Chikungunya virus, Vero 76, read-out: EC50 chikungunya virus
[24] = Vero 76, read-out: EC50 enterovirus-71
[25] = Middle East respiratory syndrome-related coronavirus, Vero 76, read-out: MERS-CoV EC50 EMC strain
[26] = read-out: Yellow fever virus CC50 Huh7, Visual, YFV screen
[27] = read-out: Yellow fever virus EC50 YFV 17D strain
[28] = read-out: MERS-CoV CC50 Vero 76, Visual, MERS-CoV screen
[29] = read-out: EC50 chikungunya virus
[30] = read-out: MERS-CoV EC50 EMC strain
[31] = Vero 76, Neutral Red (Cytopathic effect/Toxicity)
[32] = Vero 76, Visual (Virus yield reduction)

SMILES | CC50 (in vitro [1]; CC50) | EC50 [2, 16] | EC50 [2, 17] | CC50 (in vitro [3]) | CC50 (Huh7 cells; [18]) | CC50 (Vero cells; African green monkey) | EC50 [4, 19] | EC50 ([4]; read-out: EC50 dengue virus 2) | EC50 [5, 20] | CC50 (Vero 76 cells; [21]) | EC50 [6, 22] | EC50 [6] | EC50 ([7]; Norwalk virus) | EC50 ([9]; Influenza A virus, H1N1, MDCK) | CC50 (in vitro [10]; Measles CC50 Vero 76) | CC50 at 3 days [11] | EC50 [12, 24] | CC50 (in vitro [13]) | EC50 [9] | EC50 ([12]; read-out: EC50 enterovirus-71) | also measured
OC[C@H]1O[C@@H](n2ccc3c(C4CC4)ncnc32)[C@H](O)[C@@H]1O [3.1a, 6-Cyclopropyl-9-β-D-ribofuranosyl-7-deazapurine, reference compound] | > 100 µM | 63 µM | 56 µM | > 100 µM | > 100 µM | > 100 µM | 32 µM | 45 µM | > 100 µM | > 100 µM | 100 µM | > 100 µM | 2.52 µM | > 100 µM | 100 µM | > 100 µM | > 100 µM | 100 µM | – | – | CC50 (in vitro [1]; Yellow fever virus CC50 Huh7): 100 µM; CC50 (Vero 76 cells; African green monkey): > 100 µM; activity against chikungunya virus in words [8]: inactive; EC50 [8, 23]: > 100 µM; activity against influenza A (H1N1) in words [9]: not active; CC50 (in vitro [10]; MERS-CoV CC50 Vero 76): > 100 µM; EC50 (MERS-CoV (EMC strain); [25]): > 100 µM
OC[C@H]1O[C@@H](n2ccc3c(C#CC4CC4)ncnc32)[C@H](O)[C@@H]1O [3.1c, 6-Cydopropylethynyl-9-β-D-ribofuranosyl-7-deazapurine] | – | – | 0.97 µM and 1 µM | – | 60 µM | – | – | – | – | > 100 µM | – | 0.68 µM | – | – | – | – | – | – | 11 µM and 8.2 µM | > 100 µM | CC50 (MDCK cells): > 100 µM; CC50 (Huh7 cells; [26]): 32 µM; EC50 [5, 27]: 0.86 µM and 1.8 µM; CC50 (Vero 76 cells): > 100 µM; CC50 (Vero 76 cells; [28]): 100 µM; EC50 [7]: 0.13 µM and 0.126 µM; EC50 [8, 29]: > 100 µM; EC50 [14]: 1.1 µM; EC90 [14]: 0.65 µM; activity against influenza A (H1N1) in words [9]: moderate activity; CC50 (HG23 Nov replicon cells): 17.5 µM; activity against enterovirus-71 in words [12]: inactive; activity against MERS-CoV in words (MERS-CoV (EMC strain)): moderately active with low selectivity index; EC50 (MERS-CoV (EMC strain); [30]): 10 µM and 6.7 µM
CC#Cc1ncnc2c1ccn2[C@@H]1O[C@H](CO)[C@@H](O)[C@H]1O [3.1d, 6-(Prop-1-yn-1-yl)-9-β-D-ribofuranosyl-7-deazapurine] | 3.6 µM | > 3.6 µM | > 3.4 µM | 6.1 µM | 1.8 µM | 4.2 µM | 0.32 µM | 0.37 µM | 2.9 µM | 3.3 µM | 3.2 µM | 2.2 µM | 0.006 µM | 3.2 µM | 3.6 µM | 17.4 µM | – | 5.2 µM | 2.9 µM | – | CC50 (MDCK cells; dog): 4.9 µM; CC50 (Huh7 cells; human): 3.7 µM; CC50 (Huh7 cells; [26]): 12 µM; EC50 [5, 27]: > 1.8 µM; CC50 (Vero 76 cells; African green monkey): 3.4 µM; activity against human norovirus in words [7]: low nanomolar activity and high selectivity; CC50 (in vitro [10]; MERS-CoV CC50 Vero 76): 3.2 µM
CC(C)C#Cc1ncnc2c1ccn2[C@@H]1O[C@H](CO)[C@@H](O)[C@H]1O [3.1e, 6-(3-Methylbut-1-yn-1-yl)-9-β-D-ribofuranosyl-7-deazapurine] | 24 µM | 3.2 µM | 2.4 µM | – | – | 7.3 µM | 3.2 µM | 1.8 µM | 9.2 µM | > 100 µM | 1.3 µM | 1 µM | 0.396 µM | 3.2 µM | 34 µM | 39.5 µM | 4.2 µM | 10 µM | 3 µM | 4.3 µM | CC50 (in vitro [1]; Yellow fever virus CC50 Huh7): 28 µM; CC50 (Huh7 cells; human): 21 µM; EC50 [15, 31]: 4 µM; EC90 [15, 32]: 4.6 µM; EC50 [8, 23]: > 100 µM; CC50 (in vitro [10]; MERS-CoV CC50 Vero 76): > 100 µM; EC50 (MERS-CoV (EMC strain); [25]): 11 µM; EC50 (MERS-CoV (EMC strain); [30]): 14 µM
CCCC#Cc1ncnc2c1ccn2[C@@H]1O[C@H](CO)[C@@H](O)[C@H]1O [3.1f, 6-(Pent-1-yn-1-yl)-9-β-D-ribofuranosyl-7-deazapurine] | 12 µM | 3.2 µM | 3.7 µM | 9.1 µM | 31 µM | 9.9 µM | 0.75 µM | 0.96 µM | – | 110 µM | 1.6 µM | 1.8 µM | 0.002 µM | 2.2 µM | 63 µM | 38.7 µM | 2.2 µM | 10 µM | 2.3 µM | 1.6 µM | CC50 (MDCK cells; dog): 5.1 µM; CC50 (in vitro [1]; Yellow fever virus CC50 Huh7): 28 µM; CC50 (Huh7 cells; human): 11 µM; CC50 (Vero 76 cells; [28]): 19 µM; EC50 [15, 31]: 29 µM; EC90 [15, 32]: 17 µM; activity against human norovirus in words [7]: low nanomolar activity and high selectivity; CC50 (in vitro [10]; CC50): > 100 µM
OC[C@H]1O[C@@H](n2ccc3c(C#CC4CCCC4)ncnc32)[C@H](O)[C@@H]1O [3.1g, 6-(Cydopentylethynyl)-9-β-D-ribofuranosyl-7-deazapurine] | – | – | 3.3 µM and 2.8 µM | – | 6 µM | – | – | – | – | 49 µM | – | 0.37 µM | – | – | – | – | – | – | > 8.4 µM | 1.5 µM | CC50 (Huh7 cells; [26]): 8.6 µM; CC50 (Vero cells): 34 µM; EC50 [5, 27]: 0.86 µM and 1.3 µM; CC50 (Vero 76 cells; [28]): 100 µM; EC50 ([15]; Neutral Red (Cytopathic effect/Toxicity)): 3.8 µM; EC90 ([15]; Visual (Virus yield reduction)): 1.1 µM; EC50 [7]: 0.438 µM; EC50 [8, 29]: > 100 µM; CC50 (HG23 Nov replicon cells): 25.8 µM; activity against MERS-CoV in words (MERS-CoV (EMC strain)): moderately active with low selectivity index
OC[C@H]1O[C@@H](n2ccc3c(C#Cc4ccc(Cl)cc4)ncnc32)[C@H](O)[C@@H]1O [3.1j, 6-((4-Chlorophenyl)ethynyl)-9-β-D-ribofuranosyl-7-deazapurine] | 12 µM | 3.2 µM | 3.3 µM | 2.4 µM | 5 µM | 6.5 µM | 1.1 µM | 1 µM | 1.2 µM | – | > 8.6 µM | > 6.5 µM | 0.022 µM | > 2.4 µM | 12 µM | 38.6 µM | > 32 µM | 8.6 µM | > 3.2 µM | > 31 µM | CC50 (MDCK cells; dog): 3.2 µM; CC50 (Huh7 cells; human): 13 µM; CC50 (Huh7 cells; [26]): 28 µM; EC50 [5, 27]: 0.8 µM; EC50 [8, 23]: > 32 µM; EC50 [8, 29]: > 23 µM; CC50 (in vitro [10]; MERS-CoV CC50 Vero 76): 32 µM; EC50 (MERS-CoV (EMC strain); [25]): > 32 µM
C[C@@]1(O)[C@H](O)[C@@H](CO)O[C@H]1n1ccc2c(N)ncnc21 [7-Deaza-2′-C-methyladenosine] | – | – | – | – | – | – | – | – | – | – | – | – | – | – | – | – | – | – | – | – | EC50 (HCV): 0.25 µM
C[C@@]1(O)[C@H](O)[C@@H](CO)O[C@H]1n1cc(F)c2c(N)ncnc21 [7-fluoro-7-deaza-2′-C-methyladenosine] | – | – | – | – | – | – | – | – | – | – | – | – | – | – | – | – | – | – | – | – | EC50 (HCV): 0.07 µM
CCOC(=O)c1ccc(OCCC2CCN(c3ccc(C)nn3)CC2)cc1 [Pirodavir, pirodavir, reference compound] | – | – | – | – | – | – | – | – | – | – | – | – | – | – | – | – | 0.4 µM | – | – | 0.27 µM | EC50 [15, 31]: 0.35 µM; EC90 [15, 32]: 0.46 µM; CC50 (in vitro [10]; CC50): > 27 µM
